Measured values published in US11312719B2, “9-substituted amino triazolo quinazoline derivatives as adenosine receptor antagonists, pharmaceutical compositions and their use” (Merck Sharp & Dohme Corp., priority 2018, dated 2022).

Legend:
human A2A receptors = human A2A receptors (Homo sapiens (Human), UniProt P29274); test: A2A antagonism in cAMP cell-based assay (LANCE cAMP, HEK293); details: HEK293 cells expressing human A2A receptor
Method in brief: (§1)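 HEK293 cells expressing human A2A or A2B, in HBSS/5 mM HEPES/200 nM rolipram, were preincubated with compound (0.5–10,000 nM, 0.25% DMSO) 30 min at 37° C. Adenosine was then added from 300 nM (A2A) or 600 nM (A2B) solution for 30 min.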

human A2B receptors = human A2B receptors (Homo sapiens (Human), UniProt P29275); test: A2B antagonism in cAMP cell-based assay (LANCE cAMP, HEK293); details: HEK293 cells expressing human A2B receptor; for A2B cAMP % Inh. @10000 nM: at 10000 nM
Sequence of human A2B receptors (P29275 whole entry): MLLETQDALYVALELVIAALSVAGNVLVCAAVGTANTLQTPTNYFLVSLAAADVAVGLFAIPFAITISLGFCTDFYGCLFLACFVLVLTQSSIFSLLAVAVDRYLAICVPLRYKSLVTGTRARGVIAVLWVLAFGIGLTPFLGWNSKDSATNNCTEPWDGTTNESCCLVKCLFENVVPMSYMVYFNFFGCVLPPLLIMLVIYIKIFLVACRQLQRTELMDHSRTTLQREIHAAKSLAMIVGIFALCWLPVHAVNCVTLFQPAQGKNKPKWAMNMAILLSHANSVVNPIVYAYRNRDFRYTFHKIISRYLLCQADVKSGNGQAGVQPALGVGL
Method in brief: as §1

Sequence of human A2A receptors (P29274 whole entry): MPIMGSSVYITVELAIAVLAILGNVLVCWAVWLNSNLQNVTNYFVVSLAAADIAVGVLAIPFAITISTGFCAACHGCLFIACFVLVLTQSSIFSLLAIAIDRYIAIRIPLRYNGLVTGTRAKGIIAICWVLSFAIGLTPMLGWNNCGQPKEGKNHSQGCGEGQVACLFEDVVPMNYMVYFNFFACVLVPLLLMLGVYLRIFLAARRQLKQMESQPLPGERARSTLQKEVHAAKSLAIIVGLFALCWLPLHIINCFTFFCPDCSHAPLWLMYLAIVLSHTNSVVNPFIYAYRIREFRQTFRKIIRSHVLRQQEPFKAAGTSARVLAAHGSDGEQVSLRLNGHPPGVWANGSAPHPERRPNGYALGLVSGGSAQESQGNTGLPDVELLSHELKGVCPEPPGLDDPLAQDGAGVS

Structure (SMILES) | IC50 (human A2A receptors) [nM] | IC50 (human A2B receptors) [nM] | A2B cAMP % Inh. @10000 nM (human A2B receptors) [% Inh.]
CC(O)C(C)n1cc(N2CCC[C@@H](c3nc4c5cc(F)cc(F)c5nc(N)n4n3)C2)cn1 (single isomer, unassigned) [Example 197, (2S,3S or 2R,3R)-3-(4-((R)-3-(5-amino-7,9-difluoro-[1,2,4]triazolo[1,5-c]quinazolin-2-yl)piperidin-1-yl)-1H-pyrazol-1-yl)butan-2-ol] | 6.4 | 93 | –
CC(O)C(C)n1cc(N2CCC[C@@H](c3nc4c5cc(F)cc(F)c5nc(N)n4n3)C2)cn1 (single isomer, unassigned) [Example 198, (2R,3R or 2S,3S)-3-(4-((R)-3-(5-amino-7,9-difluoro-[1,2,4]triazolo[1,5-c]quinazolin-2-yl)piperidin-1-yl)-1H-pyrazol-1-yl)butan-2-ol] | 4.3 | 52.4 | –
COc1cc2nc(N)n3nc([C@@H]4CCCN(c5cnn(C(C)C(C)O)c5)C4)nc3c2cc1F (single isomer, unassigned) [Example 199, (2R,3S or 2S,3R)-3-(4-((R)-3-(5-amino-9-fluoro-8-methoxy-[1,2,4]triazolo[1,5-c]quinazolin-2-yl)piperidin-1-yl)-1H-pyrazol-1-yl)butan-2-ol] | 2.5 | 97.5 | –
COc1cc2nc(N)n3nc([C@@H]4CCCN(c5cnn(C(C)C(C)O)c5)C4)nc3c2cc1F (single isomer, unassigned) [Example 200, (2S,3R or 2R,3S)-3-(4-((R)-3-(5-amino-9-fluoro-8-methoxy-[1,2,4]triazolo[1,5-c]quinazolin-2-yl)piperidin-1-yl)-1H-pyrazol-1-yl)butan-2-ol] | 2.5 | 102 | –
COc1cc(F)cc2c1nc(N)n1nc([C@@H]3CCCN(c4cnn(C(C)C(C)O)c4)C3)nc21 (single isomer, unassigned) [Example 201, (2R,3S or 2S,3R)-3-(4-((R)-3-(5-amino-9-fluoro-7-methoxy-[1,2,4]triazolo[1,5-c]quinazolin-2-yl)piperidin-1-yl)-1H-pyrazol-1-yl)butan-2-ol] | 1.9 | 38.4 | –
COc1cc(F)cc2c1nc(N)n1nc([C@@H]3CCCN(c4cnn(C(C)C(C)O)c4)C3)nc21 (single isomer, unassigned) [Example 202, (2S,3R or 2R,3S)-3-(4-((R)-3-(5-amino-9-fluoro-7-methoxy-[1,2,4]triazolo[1,5-c]quinazolin-2-yl)piperidin-1-yl)-1H-pyrazol-1-yl)butan-2-ol] | 1.4 | 62.4 | –
CC(O)C(C)n1cc(N2CCC[C@@H](c3nc4c5cc(F)cc(F)c5nc(N)n4n3)C2)cn1 (single isomer, unassigned) [Example 203, (2R,3S or 2S,3R)-3-(4-((R)-3-(5-amino-7,9-difluoro-[1,2,4]triazolo[1,5-c]quinazolin-2-yl)piperidin-1-yl)-1H-pyrazol-1-yl)butan-2-ol] | 7.7 | 53.2 | –
CC(O)C(C)n1cc(N2CCC[C@@H](c3nc4c5cc(F)cc(F)c5nc(N)n4n3)C2)cn1 (single isomer, unassigned) [Example 204, (2S,3R or 2R,3S)-3-(4-((R)-3-(5-amino-7,9-difluoro-[1,2,4]triazolo[1,5-c]quinazolin-2-yl)piperidin-1-yl)-1H-pyrazol-1-yl)butan-2-ol] | 7.8 | 87.7 | –
COc1cc(F)cc2c1nc(N)n1nc(C3CC(C)CN(c4cn(C(C)(C)C(C)O)nc4C)C3)nc21 (single isomer, unassigned) [Example 205, (R or S)-3-(4-((3R,5S or 3S,5R)-3-(5-amino-9-fluoro-7-methoxy-[1,2,4]triazolo[1,5-c]quinazolin-2-yl)-5-methylpiperidin-1-yl)-3-methyl-1H-pyrazol-1-yl)-3-methylbutan-2-ol] | 7 | 1150 | –
COc1cc(F)cc2c1nc(N)n1nc(C3CC(C)CN(c4cn(C(C)(C)C(C)O)nc4C)C3)nc21 (single isomer, unassigned) [Example 206, (S or R)-3-(4-((3R,5S or 3S,5R)-3-(5-amino-9-fluoro-7-methoxy-[1,2,4]triazolo[1,5-c]quinazolin-2-yl)-5-methylpiperidin-1-yl)-3-methyl-1H-pyrazol-1-yl)-3-methylbutan-2-ol] | 13 | 4310 | –
COc1cc(F)cc2c1nc(N)n1nc(C3CC(C)CN(c4cn(C(C)(C)C(C)O)nc4C)C3)nc21 (single isomer, unassigned) [Example 207, (R or S)-3-(4-((3S,5R or 3R,5S)-3-(5-amino-9-fluoro-7-methoxy-[1,2,4]triazolo[1,5-c]quinazolin-2-yl)-5-methylpiperidin-1-yl)-3-methyl-1H-pyrazol-1-yl)-3-methylbutan-2-ol] | 0.9 | 10.4 | –
COc1cc2nc(N)n3nc([C@@H]4C[C@H](C)CN(c5cn([C@@H](C)[C@H](C)O)nc5C)C4)nc3c2cc1F (single isomer, unassigned) [Example 208, (2S,3S or 2R,3R)-3-(4-((3R,5S or 3S,5R)-3-(5-amino-9-fluoro-8-methoxy-[1,2,4]triazolo[1,5-c]quinazolin-2-yl)-5-methylpiperidin-1-yl)-3-methyl-1H-pyrazol-1-yl)butan-2-ol] | 0.7 | 2800 | –
COc1cc2nc(N)n3nc([C@@H]4C[C@H](C)CN(c5cn([C@H](C)[C@@H](C)O)nc5C)C4)nc3c2cc1F (single isomer, unassigned) [Example 209, (2R,3R or 2S,3S)-3-(4-((3R,5S or 3S,5R)-3-(5-amino-9-fluoro-8-methoxy-[1,2,4]triazolo[1,5-c]quinazolin-2-yl)-5-methylpiperidin-1-yl)-3-methyl-1H-pyrazol-1-yl)butan-2-ol] | 0.7 | 635 | –
COc1cc2nc(N)n3nc([C@H]4C[C@@H](C)CN(c5cn([C@H](C)[C@@H](C)O)nc5C)C4)nc3c2cc1F (single isomer, unassigned) [Example 210, (2R,3R or 2S,3S)-3-(4-((3S,5R or 3R,5S)-3-(5-amino-9-fluoro-8-methoxy-[1,2,4]triazolo[1,5-c]quinazolin-2-yl)-5-methylpiperidin-1-yl)-3-methyl-1H-pyrazol-1-yl)butan-2-ol] | 16.2 | – | 35
COc1cc2nc(N)n3nc([C@H]4C[C@@H](C)CN(c5cn([C@@H](C)[C@H](C)O)nc5C)C4)nc3c2cc1F (single isomer, unassigned) [Example 211, (2S,3S or 2R,3R)-3-(4-((3S,5R or 3R,5S)-3-(5-amino-9-fluoro-8-methoxy-[1,2,4]triazolo[1,5-c]quinazolin-2-yl)-5-methylpiperidin-1-yl)-3-methyl-1H-pyrazol-1-yl)butan-2-ol] | 89.3 | > 10000 | –
Cc1nn(C(C)C(C)O)cc1N1CC(C)CC(c2nc3c4cc(F)cc(F)c4nc(N)n3n2)C1 (single isomer, unassigned) [Example 212, (2S,3S or 2R,3R)-3-(4-((3R,5S or 3S,5R)-3-(5-amino-7,9-difluoro-[1,2,4]triazolo[1,5-c]quinazolin-2-yl)-5-methylpiperidin-1-yl)-3-methyl-1H-pyrazol-1-yl)butan-2-ol] | 122 | – | 27
Cc1nn(C(C)C(C)O)cc1N1CC(C)CC(c2nc3c4cc(F)cc(F)c4nc(N)n3n2)C1 (single isomer, unassigned) [Example 213, (2R,3R or 2S,3S)-3-(4-((3R,5S or 3S,5R)-3-(5-amino-7,9-difluoro-[1,2,4]triazolo[1,5-c]quinazolin-2-yl)-5-methylpiperidin-1-yl)-3-methyl-1H-pyrazol-1-yl)butan-2-ol] | 331 | > 10000 | –
Cc1nn(C(C)C(C)O)cc1N1CC(C)CC(c2nc3c4cc(F)cc(F)c4nc(N)n3n2)C1 (single isomer, unassigned) [Example 214, (2R,3R or 2S,3S)-3-(4-((3S,5R or 3R,5S)-3-(5-amino-7,9-difluoro-[1,2,4]triazolo[1,5-c]quinazolin-2-yl)-5-methylpiperidin-1-yl)-3-methyl-1H-pyrazol-1-yl)butan-2-ol] | 0.5 | 34.1 | –
Cc1nn(C(C)C(C)O)cc1N1CC(C)CC(c2nc3c4cc(F)cc(F)c4nc(N)n3n2)C1 (single isomer, unassigned) [Example 215, (2S,3S or 2R,3R)-3-(4-((3S,5R or 3R,5S)-3-(5-amino-7,9-difluoro-[1,2,4]triazolo[1,5-c]quinazolin-2-yl)-5-methylpiperidin-1-yl)-3-methyl-1H-pyrazol-1-yl)butan-2-ol] | 0.4 | 27.5 | –
Cc1c(N2CC(C)CC(c3nc4c5cc(F)cc(F)c5nc(N)n4n3)C2)cnn1C(C)C(C)O (single isomer, unassigned) [Example 216, (2S,3S or 2R,3R)-3-(4-((3R,5S or 3S,5R)-3-(5-amino-7,9-difluoro-[1,2,4]triazolo[1,5-c]quinazolin-2-yl)-5-methylpiperidin-1-yl)-5-methyl-1H-pyrazol-1-yl)butan-2-ol] | 1 | 160 | –
Cc1c(N2CC(C)CC(c3nc4c5cc(F)cc(F)c5nc(N)n4n3)C2)cnn1C(C)C(C)O (single isomer, unassigned) [Example 217, (2R,3R or 2S,3S)-3-(4-((3R,5S or 3S,5R)-3-(5-amino-7,9-difluoro-[1,2,4]triazolo[1,5-c]quinazolin-2-yl)-5-methylpiperidin-1-yl)-5-methyl-1H-pyrazol-1-yl)butan-2-ol] | 1.1 | 161 | –
Cc1c(N2CC(C)CC(c3nc4c5cc(F)cc(F)c5nc(N)n4n3)C2)cnn1C(C)C(C)O (single isomer, unassigned) [Example 218, (2R,3R or 2S,3S)-3-(4-((3S,5R or 3R,5S)-3-(5-amino-7,9-difluoro-[1,2,4]triazolo[1,5-c]quinazolin-2-yl)-5-methylpiperidin-1-yl)-5-methyl-1H-pyrazol-1-yl)butan-2-ol] | 236 | 5780 | –
